Several values for one entry are separate records, joined by “and”; a condition that tells them apart may be missing. Equal entries are not always repeated.
Columns and labels:
strain L-3 [1] = assay: Sources of carbon and energy used by the strain L-3; assay type: cell-based, Archaeoglobus fulgidus CNCM I-3465 (strain L-3); details: for OD 580 nm Final / OD 580 nm Initial / H2S (480 nm): thiosulphate as electron acceptor
Method: (§1) Experimentally, 4 ml of Cord-Ruwish reagent comprising 50 mmol/l of HCl and 5 mmol/l of CuSO4 are added to 0.1 ml of sample. Copper sulphate (CuSO4) by reacting with hydrogen sulphide (H2S), forms a copper sulphide precipitate (CuS) after the reaction: CuSO4+H2S→CuS+H2SO4
(§2) According to this method, the CuS is assayed by spectrophotometry at 480 nm. The readings are carried out against a blank constituted by 4 ml of Cord-Ruwish reagent.
(§3) The analysis and quantification of the metabolites are carried out by HPLC by measuring the disappearance of the substrate and the appearance of different metabolism products.
The study of the growth of the strain L-3 in the presence of different sources of carbon and energy was carried out with thiosulphate as an electron acceptor. The monitoring was carried out by estimation of the cell biomass (OD 580 nm), by assay of the sulphide production (Cord-Ruwish). The results were confirmed by HPLC analyses, and completed in certain cases by a CO2 assay.

[2] = system: Archaeoglobus fulgidus (DSM 4304); assay: Degradation of different substrates by A. fulgidus as a function of the electron acceptor; assay type: cell-based
Method: as §1, §2, §3
(§4) The study of the degradation abilities of different substrates of the strain L-3 was based on a comparison with the collection strain, Archaeoglobus fulgidus (DSM 4304). The degradation of the substrates, by the two strains was monitored by a measurement of the cell biomass at 580 nm, a sulphide assay produced according to the Cord-Ruwish method, a study of the degradation metabolites by HPLC, completed by a CO2 assay with a GPC-Katharometer.
(§5) Two series of tests were prepared, one with thiosulphate, the other with sulphate as an electron acceptor.

strain L-3 [3] = assay: Degradation of different substrates by the strain L-3 as a function of the electron acceptor; assay type: cell-based, Archaeoglobus fulgidus CNCM I-3465 (strain L-3); parameters: total H2S: unit not given here
Method: as §1, §2, §3, §4, §5

Archaeoglobus fulgidus = assay: Screening for hydrocarbon degradation, A. fulgidus (sulphide production, Cord-Ruwish); assay type: cell-based; details: for ΔS tf-ti: final minus initial sulphide
Method: as §1, §2
The study of the hydrocarbon degradation abilities is an experiment which requires a particularly long incubation. Thus, it was carried out in Bellco tubes sealed with thick rubber stoppers.
For these experiments, tubes containing 10 ml of culture medium without substrate, are 10% inoculated, then the hydrocarbon is introduced by injection through the stopper.
The hydrocarbons chosen are model molecules belonging to the different classes of hydrocarbons, namely: • hexadecane (CH3(CH2)14CH3, C16), a saturated linear aliphatic hydrocarbon; • hexadecene (CH3(CH2)13CHCH2, C16:1), an unsaturated linear aliphatic hydrocarbon of biogenic origin; • dibenzothiophene (DBT, C12H8S), a sulphur-containing aromatic hydrocarbon.
The aliphatic hydrocarbons (C16; C16:1) are added to the corresponding tubes, at a rate of 0.04 ml/10 ml of culture medium. The aromatic hydrocarbons (DBT) are solubilized in 2,2,4,4,6,8,8-heptamethylnonane (HMN, C16H34) at a rate of 20 mg/ml of HMN, and 0.75 ml of this solution is injected into 10 ml of culture medium.
3 tubes were produced for each test and control. The growth of the strains was monitored indirectly by the production of sulphide.
A subculture was carried out starting from the preceding experiment on naphthalene, DBT solubilized as previously in HMN, and on HMN alone, for the two strains studied.

[4] = thiosulphate as electron acceptor

CCC(=O)O [Propionate, propionate]
OD 580 nm Final (strain L-3 [1]): 0.0871 and 0.072
OD 580 nm Initial (strain L-3 [1]): 0.0669 and 0.0717
H2S (480 nm) (strain L-3 [1]; unit from b126): 0.3 mM

CC(=O)C(=O)O [Pyruvate, pyruvate]
final OD 580 ([2]; sulphate as electron acceptor): 0.1643 and 0.1575
initial OD 580 ([2]; sulphate as electron acceptor): 0.1281 and 0.1377
total H2S ([2]; sulphate as electron acceptor): 10.3 mM and 7.3 mM
final OD 580 [2, 4]: 0.3668 and 0.3489
initial OD 580 [2, 4]: 0.1368 and 0.1351
final OD 580 (strain L-3 [3]; sulphate as electron acceptor): 0.0958 and 0.0944
initial OD 580 (strain L-3 [3]; sulphate as electron acceptor): 0.0603 and 0.0636
total H2S (strain L-3 [3]; sulphate as electron acceptor): 3.5 and 3.3
final OD 580 (strain L-3 [3]; [4]): 0.1161 and 0.0863
initial OD 580 (strain L-3 [3]; [4]): 0.0785 and 0.0911
total H2S (strain L-3 [3]; [4]): 4
H2S (480 nm) (strain L-3 [1]): 5.2 mM
OD 580 nm Final (strain L-3 [1]): 0.1315 and 0.1758
OD 580 nm Initial (strain L-3 [1]): 0.067 and 0.0713

O=C[C@H](O)[C@H](O)[C@H](O)CO [Ribose, ribose]
HPLC analyses, initial quantity of the substrate (strain L-3 [1]; no increase in biomass or sulphide, explained by isomerization at high temperature): reduction in the initial quantity of the substrate
OD 580 nm Final (strain L-3 [1]): 0.3422 and 0.21
H2S (480 nm) (strain L-3 [1]; unit from b126): 0.6 mM and 0.5 mM

O=C(O)CCC(=O)O [Succinate]
OD 580 nm Final (strain L-3 [1]): 0.0659 and 0.0672
OD 580 nm Initial (strain L-3 [1]): 0.0845 and 0.0791
H2S (480 nm) (strain L-3 [1]; unit from b126): 0.3 mM

Gelatin
OD 580 nm Final (strain L-3 [1]): 0.0743 and 0.0767
OD 580 nm Initial (strain L-3 [1]): 0.0629 and 0.0894
H2S (480 nm) (strain L-3 [1]; unit from b126): 0.3 mM and 0.2 mM

Starch
OD 580 nm Initial (strain L-3 [1]): 0.8834 and 0.8614
H2S (480 nm) (strain L-3 [1]; unit from b126): 0.8 mM and 0.7 mM

hexadecene [C16:1]
sulphide production (OD 480) 0 d (Archaeoglobus fulgidus; 0 d, aromatics solubilized in HMN): 0.8 mM and 0.6 mM
sulphide production (OD 480) 45 d (Archaeoglobus fulgidus; 45 d): 3.6 mM and 4.3 mM
ΔS tf-ti (Archaeoglobus fulgidus): approximately 3 mM
ΔS tf-ti (Archaeoglobus fulgidus; listed as C16: 1): 2.8 mM and 3.0 mM and 3.5 mM
